Activity calls are given as the source filed them. The calls are words filed in the database; no cut-off is given here.
Tests used:
[1] = system: BaF3; experiment: Antitumor activity against mouse BaF3 cells implanted in BALB/c mouse harboring HER2-A775-G776 ins YVMA mutant assessed as tumor growth inhibition at 20 mg/kg, po administered once daily for 13 to 14 days; type: functional; conditions: time 13-14 day, read-out: TGI
[2] = system: BaF3; experiment: Antiproliferative activity against mouse BAF3 cells harboring HER2-A775-G776 ins YVMA mutant after 72 hrs by celltiter-Glo luminescence assay; type: functional, cell-based; conditions: BaF3, 72 h
[3] = system: BaF3; experiment: Inhibition of HER2-A775-G776 ins YVMA mutant in mouse BaF3 cells assessed as reduction in HER2 phosphorylation at less than 1 nM incubated for 24 hrs by Western blot analysis; type: cell-based
[4] = Oral bioavailability in Sprague-Dawley rat at 10 mg/kg measured upto 8 hrs by LC-MS/MS analysis; type: ADME, organism-based; conditions: in vivo
[5] = target: Voltage-gated inwardly rectifying potassium channel KCNH2 (Homo sapiens, UniProt Q12809); experiment: Binding affinity to human ERG; type: toxicity
[6] = AUC(0 to t) in Sprague-Dawley rat at 10 mg/kg, iv measured upto 8 hrs by LC-MS/MS analysis; type: ADME, organism-based; parameters: dose 10 mg/kg, time < 8 hrs, route iv; conditions: in vivo
[7] = Toxicity in BALB/c mouse harboring EGFR D770-N771 ins NPG mutant implanted with mouse BaF3 cells assessed as change in body weight at 10 to 20 mg/kg, po administered once daily for 13 to 14 days; type: organism-based; conditions: in vivo, dose lower 10 mg/kg, time lower 13 day, dose upper 20 mg/kg, time upper 14 day
[8] = system: BaF3; experiment: Antiproliferative activity against mouse BAF3 cells harboring HER2-P780-Y781 ins GSP mutant after 72 hrs by celltiter-Glo luminescence assay; type: functional, cell-based; conditions: BaF3, 72 h
[9] = AUC(0 to t) in Sprague-Dawley rat at 10 mg/kg, po measured upto 8 hrs by LC-MS/MS analysis; type: ADME, organism-based; parameters: dose 10 mg/kg, time < 8 hrs, route po; conditions: in vivo
[10] = Inhibition of HER2-A775-G776 ins YVMA mutant (unknown origin); parameters: species or system Homo sapiens
[11] = target: Protein-tyrosine kinase 6 (Homo sapiens) (UniProt Q13882); experiment: Inhibition of BRK (unknown origin) at 500 nM relative to control
[12] = system: BaF3; experiment: Antiproliferative activity against mouse BAF3 cells harboring FL-EGFR A763-Y764 ins FQEA mutant after 72 hrs by celltiter-Glo luminescence assay; type: functional, cell-based; conditions: BaF3, 72 h
[13] = Cmax in Sprague-Dawley rat at 10 mg/kg, po measured upto 8 hrs by LC-MS/MS analysis; type: ADME, organism-based; parameters: dose 10 mg/kg, time < 8 hrs, route po; conditions: in vivo
[14] = Half life in Sprague-Dawley rat at 10 mg/kg, po measured upto 8 hrs by LC-MS/MS analysis; type: ADME, organism-based; conditions: in vivo
[15] = system: BaF3; experiment: In vivo inhibition of EGFR D770-N771 ins NPG mutant in BALB/c mouse implanted with mouse BaF3 cells assessed as reduction in EGFR phosphorylation at 10 to 20 mg/kg, po administered once daily for 13 to 14 days by Western blot analysis; type: functional, organism-based; conditions: dose 10-20 mg/kg, time 13-14 day
[16] = target: Receptor tyrosine-protein kinase erbB-2 (Homo sapiens, UniProt P04626); experiment: Inhibition of HER2 (unknown origin)
[17] = system: BaF3; experiment: In vivo inhibition of HER2-A775-G776 ins YVMA mutant in BALB/c mouse implanted with mouse BaF3 cells assessed as reduction in HER2 phosphorylation at 10 to 20 mg/kg, po administered once daily for 13 to 14 days by Western blot analysis; type: functional, organism-based; conditions: dose 10-20 mg/kg, time 13-14 day
[18] = target: Receptor tyrosine-protein kinase erbB-4 (Homo sapiens) (UniProt Q15303); conditions: dose 500.0 nM
Description: Inhibition of HER4 (unknown origin) at 500 nM relative to control

[19] = target: T1, Ephrin type-A receptor 6 (Homo sapiens) (UniProt Q9UF33); experiment: Inhibition of EPHA6 (unknown origin) at 500 nM relative to control
T1 sequence (whole entry): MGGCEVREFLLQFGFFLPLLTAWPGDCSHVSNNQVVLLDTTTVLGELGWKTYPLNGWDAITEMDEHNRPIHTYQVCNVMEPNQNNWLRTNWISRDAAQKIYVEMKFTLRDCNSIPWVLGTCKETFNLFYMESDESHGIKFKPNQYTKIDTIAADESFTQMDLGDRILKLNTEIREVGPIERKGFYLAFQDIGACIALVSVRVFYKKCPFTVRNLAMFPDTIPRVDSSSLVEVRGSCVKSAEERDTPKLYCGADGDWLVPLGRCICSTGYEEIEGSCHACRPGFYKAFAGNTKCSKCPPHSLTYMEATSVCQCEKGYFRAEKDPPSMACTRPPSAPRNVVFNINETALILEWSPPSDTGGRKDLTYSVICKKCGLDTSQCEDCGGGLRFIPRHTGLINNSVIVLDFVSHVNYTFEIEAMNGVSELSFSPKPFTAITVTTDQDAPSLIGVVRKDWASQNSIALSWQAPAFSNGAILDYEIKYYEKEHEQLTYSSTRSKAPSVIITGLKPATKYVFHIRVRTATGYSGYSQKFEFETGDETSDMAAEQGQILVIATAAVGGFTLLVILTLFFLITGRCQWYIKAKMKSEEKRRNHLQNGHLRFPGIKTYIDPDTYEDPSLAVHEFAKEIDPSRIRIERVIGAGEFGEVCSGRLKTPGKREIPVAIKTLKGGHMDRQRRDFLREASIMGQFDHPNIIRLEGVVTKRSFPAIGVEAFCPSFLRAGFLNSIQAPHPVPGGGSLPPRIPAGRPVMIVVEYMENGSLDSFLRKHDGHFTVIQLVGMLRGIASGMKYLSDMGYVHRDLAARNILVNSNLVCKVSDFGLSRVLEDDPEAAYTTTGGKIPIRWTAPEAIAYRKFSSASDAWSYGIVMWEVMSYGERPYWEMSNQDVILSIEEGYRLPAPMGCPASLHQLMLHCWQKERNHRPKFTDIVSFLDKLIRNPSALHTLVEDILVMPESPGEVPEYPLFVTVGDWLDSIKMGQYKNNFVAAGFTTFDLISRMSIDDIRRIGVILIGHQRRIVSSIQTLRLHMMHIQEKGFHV

Chain of Protein-tyrosine kinase 6 (Homo sapiens) (Q13882 whole entry, looked up): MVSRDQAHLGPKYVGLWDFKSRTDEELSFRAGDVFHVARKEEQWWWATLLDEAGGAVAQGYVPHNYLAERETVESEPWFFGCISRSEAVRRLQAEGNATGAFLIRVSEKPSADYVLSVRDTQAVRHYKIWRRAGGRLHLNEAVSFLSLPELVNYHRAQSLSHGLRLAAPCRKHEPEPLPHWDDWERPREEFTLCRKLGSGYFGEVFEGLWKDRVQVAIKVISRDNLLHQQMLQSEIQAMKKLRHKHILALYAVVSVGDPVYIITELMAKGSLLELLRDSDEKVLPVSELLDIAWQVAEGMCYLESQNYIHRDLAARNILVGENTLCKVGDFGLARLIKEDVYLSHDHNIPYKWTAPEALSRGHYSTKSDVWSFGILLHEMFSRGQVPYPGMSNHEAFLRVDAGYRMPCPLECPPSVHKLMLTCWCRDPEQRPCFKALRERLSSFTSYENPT
Chain of Receptor tyrosine-protein kinase erbB-4 (Homo sapiens) (Q15303 whole entry): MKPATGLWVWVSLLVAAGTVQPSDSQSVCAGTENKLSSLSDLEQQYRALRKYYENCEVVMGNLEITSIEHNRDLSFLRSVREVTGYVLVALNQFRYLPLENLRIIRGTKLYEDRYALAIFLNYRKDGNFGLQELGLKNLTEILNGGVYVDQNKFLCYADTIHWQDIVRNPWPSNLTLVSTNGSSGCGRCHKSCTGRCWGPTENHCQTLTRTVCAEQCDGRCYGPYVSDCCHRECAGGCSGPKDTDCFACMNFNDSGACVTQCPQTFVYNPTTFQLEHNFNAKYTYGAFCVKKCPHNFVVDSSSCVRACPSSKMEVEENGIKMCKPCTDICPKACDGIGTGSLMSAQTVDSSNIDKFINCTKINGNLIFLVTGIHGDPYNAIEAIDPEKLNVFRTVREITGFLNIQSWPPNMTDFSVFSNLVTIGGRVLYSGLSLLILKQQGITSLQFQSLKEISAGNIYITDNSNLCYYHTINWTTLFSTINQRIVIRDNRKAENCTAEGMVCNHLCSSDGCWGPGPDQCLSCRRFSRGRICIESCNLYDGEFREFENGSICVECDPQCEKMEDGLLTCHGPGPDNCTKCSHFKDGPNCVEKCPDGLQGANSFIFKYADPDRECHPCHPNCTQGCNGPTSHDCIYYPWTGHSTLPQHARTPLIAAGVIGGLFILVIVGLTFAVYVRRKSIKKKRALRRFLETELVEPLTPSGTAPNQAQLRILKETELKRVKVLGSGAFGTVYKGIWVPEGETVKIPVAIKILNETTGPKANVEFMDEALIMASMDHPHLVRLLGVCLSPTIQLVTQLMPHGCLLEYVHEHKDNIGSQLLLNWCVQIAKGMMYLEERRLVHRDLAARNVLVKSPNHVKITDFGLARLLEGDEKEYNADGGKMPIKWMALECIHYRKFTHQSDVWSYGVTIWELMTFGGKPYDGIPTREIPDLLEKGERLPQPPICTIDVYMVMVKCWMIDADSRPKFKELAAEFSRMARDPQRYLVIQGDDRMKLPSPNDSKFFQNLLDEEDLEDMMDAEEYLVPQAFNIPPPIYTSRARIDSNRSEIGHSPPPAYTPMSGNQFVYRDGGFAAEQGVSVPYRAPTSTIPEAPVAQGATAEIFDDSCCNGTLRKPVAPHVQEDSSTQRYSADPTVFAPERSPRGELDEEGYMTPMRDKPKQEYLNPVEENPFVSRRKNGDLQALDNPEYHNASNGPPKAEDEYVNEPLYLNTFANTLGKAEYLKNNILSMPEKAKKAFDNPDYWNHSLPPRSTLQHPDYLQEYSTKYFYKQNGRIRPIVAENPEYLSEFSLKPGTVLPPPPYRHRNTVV
Chain of Receptor tyrosine-protein kinase erbB-2 (P04626 whole entry): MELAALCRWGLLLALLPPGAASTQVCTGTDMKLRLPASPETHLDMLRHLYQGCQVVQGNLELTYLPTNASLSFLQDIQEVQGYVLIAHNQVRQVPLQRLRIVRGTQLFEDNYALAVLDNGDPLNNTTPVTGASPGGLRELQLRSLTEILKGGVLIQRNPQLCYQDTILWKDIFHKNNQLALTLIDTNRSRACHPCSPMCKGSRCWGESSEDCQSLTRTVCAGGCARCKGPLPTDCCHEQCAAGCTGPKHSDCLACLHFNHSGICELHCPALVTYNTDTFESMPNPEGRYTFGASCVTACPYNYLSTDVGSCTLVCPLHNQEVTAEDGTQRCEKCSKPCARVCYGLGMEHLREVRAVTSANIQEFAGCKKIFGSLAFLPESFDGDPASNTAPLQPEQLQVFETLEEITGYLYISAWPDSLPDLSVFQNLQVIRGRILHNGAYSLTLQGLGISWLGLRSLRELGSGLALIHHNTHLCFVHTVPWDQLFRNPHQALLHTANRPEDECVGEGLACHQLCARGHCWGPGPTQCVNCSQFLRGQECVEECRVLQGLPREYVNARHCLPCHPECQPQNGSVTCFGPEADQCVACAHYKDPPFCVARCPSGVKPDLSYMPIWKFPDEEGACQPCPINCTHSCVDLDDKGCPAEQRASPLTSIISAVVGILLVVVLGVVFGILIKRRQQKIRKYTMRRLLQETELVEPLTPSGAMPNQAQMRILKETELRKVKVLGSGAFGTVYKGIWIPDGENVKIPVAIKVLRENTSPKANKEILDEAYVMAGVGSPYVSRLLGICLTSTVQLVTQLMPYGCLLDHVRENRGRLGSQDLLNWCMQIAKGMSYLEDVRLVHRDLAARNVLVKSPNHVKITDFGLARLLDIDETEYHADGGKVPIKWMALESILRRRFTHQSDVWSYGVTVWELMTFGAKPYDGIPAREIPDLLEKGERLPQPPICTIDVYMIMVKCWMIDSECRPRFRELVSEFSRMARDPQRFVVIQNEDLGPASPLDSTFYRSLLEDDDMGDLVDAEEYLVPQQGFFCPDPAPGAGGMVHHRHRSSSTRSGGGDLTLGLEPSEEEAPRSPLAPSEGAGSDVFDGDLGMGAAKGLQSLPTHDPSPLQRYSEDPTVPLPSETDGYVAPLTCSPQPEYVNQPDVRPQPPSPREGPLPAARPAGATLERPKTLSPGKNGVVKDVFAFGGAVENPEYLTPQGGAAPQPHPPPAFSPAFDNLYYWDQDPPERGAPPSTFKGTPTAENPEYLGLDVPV
Chain of Voltage-gated inwardly rectifying potassium channel KCNH2 (Q12809 whole entry): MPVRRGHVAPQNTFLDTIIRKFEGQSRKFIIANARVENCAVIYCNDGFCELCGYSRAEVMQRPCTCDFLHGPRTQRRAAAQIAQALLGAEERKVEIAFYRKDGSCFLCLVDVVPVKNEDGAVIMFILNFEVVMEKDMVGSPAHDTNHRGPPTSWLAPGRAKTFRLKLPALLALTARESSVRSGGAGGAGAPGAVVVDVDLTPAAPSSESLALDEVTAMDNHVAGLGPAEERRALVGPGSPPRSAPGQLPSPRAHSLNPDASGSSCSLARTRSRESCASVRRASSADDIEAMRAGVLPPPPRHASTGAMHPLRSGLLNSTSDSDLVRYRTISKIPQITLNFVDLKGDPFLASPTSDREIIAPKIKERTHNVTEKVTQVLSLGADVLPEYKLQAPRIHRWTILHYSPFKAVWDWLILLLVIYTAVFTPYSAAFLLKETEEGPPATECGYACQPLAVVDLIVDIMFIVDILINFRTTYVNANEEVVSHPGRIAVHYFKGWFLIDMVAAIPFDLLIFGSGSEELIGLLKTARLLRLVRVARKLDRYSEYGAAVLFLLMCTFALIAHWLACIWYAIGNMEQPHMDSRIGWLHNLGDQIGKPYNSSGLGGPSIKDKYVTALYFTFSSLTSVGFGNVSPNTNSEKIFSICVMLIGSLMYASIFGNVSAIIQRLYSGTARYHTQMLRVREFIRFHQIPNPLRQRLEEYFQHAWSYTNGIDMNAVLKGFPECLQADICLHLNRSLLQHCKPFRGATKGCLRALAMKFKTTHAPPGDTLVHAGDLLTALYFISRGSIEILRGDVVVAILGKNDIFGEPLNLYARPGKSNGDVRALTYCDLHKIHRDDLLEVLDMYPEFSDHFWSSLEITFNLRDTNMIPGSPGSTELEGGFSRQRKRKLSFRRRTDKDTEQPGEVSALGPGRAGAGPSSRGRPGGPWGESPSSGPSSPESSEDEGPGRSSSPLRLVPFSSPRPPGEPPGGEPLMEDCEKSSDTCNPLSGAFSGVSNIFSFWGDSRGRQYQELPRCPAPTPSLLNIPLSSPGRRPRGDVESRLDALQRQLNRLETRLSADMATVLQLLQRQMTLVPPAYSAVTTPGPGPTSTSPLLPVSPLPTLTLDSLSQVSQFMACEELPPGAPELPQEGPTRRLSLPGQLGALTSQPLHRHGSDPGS

C=CC(=O)N1CCC(Oc2cc3c(Nc4cccc(Cl)c4F)ncnc3cc2O[C@H]2CCOC2)CC1
inhibition in vivo at 20 mg/kg [1]: 90%
IC50 [2]: 0.95 nM
inhibition [3]: Active
bioavailability [4]: 68%
IC50 [5]: > 15000 nM
AUC(0-t) at 8 h [6]: 13.9 µg·h/mL
Activity [7]: Non-Toxic
IC50 [8]: 0.62 nM
AUC(0-t) at 8 h [9]: 9.5 µg·h/mL
IC50 [10]: 0.92 nM
inhibition [11]: > 20%
IC50 [12]: 0.29 nM
Cmax [13]: 1.69 µg/mL
half-life [14]: 6.93 h
inhibition [15]: Active
IC50 [16]: 1.42 nM
inhibition [17]: Active
inhibition [18]: 100%
inhibition [19]: > 20%

Reference: ChEMBL document CHEMBL5252585, “Structure optimization and discovery of novel compound for the treatment of insertion mutations within exon 20 of EGFR and HER2” (Bioorg Med Chem, 2023)
